From patent US10858360B2, “Tricyclic gyrase inhibitors” (priority 2011, dated 2020)
Converted amounts (≈) assume the structure as drawn. Read-outs that look alike come from different tables or passages of the source.

How the values were obtained:
S. aureus ATCC 13709 = assay: MIC, S. aureus ATCC 13709 (Alamar Blue broth microdilution); type: cell-based; conditions: for MIC: Staphylococcus aureus, ATCC13709, S. aureus
E. coli ATCC 25922 = assay: MIC, E. coli ATCC 25922; type: cell-based; conditions: for MIC: Escherichia coli, ATCC25922, E. coli
[1] = Alamar Blue read after overnight incubation at 35° C.
[2] = S. aureus, Alamar Blue read after overnight incubation at 35° C.
[3] = E. coli, Alamar Blue read after overnight incubation at 35° C.

SMILES | MIC (S. aureus ATCC 13709; [1]) [µg/mL] | MIC (E. coli ATCC 25922; [1]) [µg/mL] | MIC Sa (S. aureus ATCC 13709; [2]) [µg/mL] | MIC Ec (E. coli ATCC 25922; [3]) [µg/mL] | further results
CNc1cc(F)cc2c1[nH]c1nc(Oc3ccc4ncsc4c3)nc(N3C[C@H]4CC[C@@H](N)[C@H]4C3)c12 [4.320] | ≤ 0.5 | 1 (≈ 2.04 µM) |  |  | 
CCNc1cccc2c1[nH]c1nc(Sc3cnc4cccnc4c3)nc(N3CC4C(N)C4C3)c12 (stereo not drawn) [1.11] | ≤ 0.5 | 8 (≈ 17.1 µM) |  |  | 
CNc1cc(F)cc2c1[nH]c1nc(Oc3cncnc3)nc(N3CC4CNC4C3)c12 (stereo not drawn) [4.008] | ≤ 0.5 | ≤ 0.5 |  |  | 
CNc1cc(F)cc2c1[nH]c1nc(Oc3cnc(C(C)C)nc3)nc(N3CC4C(N)C4C3)c12 (stereo not drawn) [4.232] |  |  | ≤0.5 | ≤0.5 | 
CNc1cccc2c1[nH]c1nc(Oc3cncc(F)c3)nc(N3CCC4(CNC4)C3)c12 [3.66] | 8 (≈ 19.1 µM) | > 32 |  |  | 
CNc1cccc2c1[nH]c1nc(Sc3cnc4ccc[n+]([O-])c4c3)nc(N3CC4C(N)C4C3)c12 (stereo not drawn) [1.49] |  |  | ≤0.5 |  | 
COc1cccc2c1[nH]c1nc(Oc3cnc4cccnc4c3)nc(N3CC4C(N)C4C3)c12 (stereo not drawn) [2.14] |  |  | 1 (≈ 2.28 µM) | >64 | 
CNc1cc(F)cc2c1[nH]c1nc(Oc3cnc(C(C)C)nc3)nc(N3CCC4(CC4N)C3)c12 (stereo not drawn) [4.235] | ≤ 0.5 | ≤ 0.5 |  |  | 
CNc1cc(F)cc2c1[nH]c1nc(Oc3cnc(SC)nc3)nc(N3C[C@H](N)C4(CC4)C3)c12 [4.194] | ≤ 0.5 | ≤ 0.5 |  |  | 
CNc1cc(F)cc2c1[nH]c1nc(Oc3cncnc3)nc(N3CC4C[C@@H]3CN4)c12 [4.022] | 8 (≈ 19.7 µM) | 16 (≈ 39.4 µM) |  |  | 
CNc1cc(F)cc2c1[nH]c1nc(Oc3cnc4cccnc4c3)nc(N3CC[C@@]4(C[C@H]4N)C3)c12 [4.041] | ≤ 0.5 | 1 (≈ 2.13 µM) |  |  | 
CCOC1CN(c2nc(Oc3cnc(C)nc3)nc3[nH]c4c(NC)cc(F)cc4c23)CC1N (mixture of isomers) [4.147] |  |  | ≤0.5 | 1 | 
CNc1cc(F)cc2c1[nH]c1nc(Oc3cnc(C)nc3)nc(N3CC4CCC(N)C4C3)c12 (stereo not drawn) [4.102] |  |  | ≤0.5 | 2 (≈ 4.46 µM) | 
CNc1cc(F)c(F)c2c1[nH]c1nc(Oc3cncnc3)nc(N3CC4C(N)C4C3)c12 (stereo not drawn) [6.19] |  |  |  |  | MIC Sa (S. aureus ATCC 13709): >16 µg/mL; MIC Ec (E. coli ATCC 25922): >16 µg/mL
CNc1cc(F)cc2c1[nH]c1nc(Oc3ccc(C#N)nc3)nc(N3C[C@H](N)C4(CC4)C3)c12 [4.329] |  |  | ≤0.5 | ≤0.5 | 
CNc1cc(F)cc2c1[nH]c1nc(Oc3cnc4cccnc4c3)nc(N3CC4NCCOC4C3)c12 (stereo not drawn) [4.048] |  |  | ≤0.5 | 1 (≈ 2.06 µM) | 
CNc1cc(F)cc2c1[nH]c1nc(Sc3cnc4ccc[n+]([O-])c4c3)nc(N3CCC4(CC4N)C3)c12 (stereo not drawn) [1.65] |  |  | ≤0.5 | ≤0.5 | 
CNc1cc(F)cc2c1[nH]c1nc(Oc3cnc(C)nc3)nc(-c3ccc(Cl)cc3N)c12 [4.161] |  |  | ≤0.5 | ≤0.5 | 
CNc1cc(F)cc2c1[nH]c1nc(Oc3cnc(C(C)(C)O)nc3)nc(N3CC4C[C@@H](N)C4C3)c12 (stereo partly drawn) [4.412] | ≤ 0.5 | ≤ 0.5 |  |  | 
CNc1cc(F)cc2c1[nH]c1nc(Oc3cnc(C)nc3)nc(N3CC(N)C3)c12 [4.138] |  |  | ≤0.5 | ≤0.5 | 
CNc1cc(F)cc2c1[nH]c1nc(Oc3cnc(C)nc3)nc(N3CC(N)C(C(F)(F)F)C3)c12 (stereo not drawn) [4.436] | ≤ 0.5 | > 16 |  |  | 

SMILES | MIC (S. aureus ATCC 13709; [1]) [µg/mL] | MIC (E. coli ATCC 25922; [1]) [µg/mL] | MIC Sa (S. aureus ATCC 13709; [2]) [µg/mL] | MIC Ec (E. coli ATCC 25922; [3]) [µg/mL] | further results
CNc1cccc2c1[nH]c1nc(Sc3cnc4ccc[n+]([O-])c4c3)nc(N3CC4C(N)C4C3)c12 (stereo not drawn) [1.66] |  |  | ≤0.13 | ≤0.5 | 
CNc1cccc2c1[nH]c1nc(Oc3cncnc3)nc(N3C[C@@H]4CNC[C@H]4C3)c12 [3.61] | 4 (≈ 9.94 µM) | 16 (≈ 39.8 µM) |  |  | 
CNc1cc(F)cc2c1[nH]c1nc(Oc3cnc(C4CC4)nc3)nc(N3CC4C(N)C4C3)c12 (stereo not drawn) [4.241] |  |  | ≤0.5 | ≤0.5 | 
CNc1cc(F)cc2c1[nH]c1nc(Oc3cncc(F)c3)nc(N3CC4CC(N)C4C3)c12 (stereo not drawn) [4.060] |  |  | ≤0.5 | ≤0.5 | 
CNc1cc(F)cc2c1[nH]c1nc(Oc3cncnc3)nc(N3CCC(C4(N)CC4)C3)c12 (stereo not drawn) [4.017] | ≤ 0.5 | ≤ 0.5 |  |  | 
CNc1cc(F)cc2c1[nH]c1nc(Oc3cnc(SC)nc3)nc(N3CC4CCNC4C3)c12 (stereo not drawn) [4.198] | ≤ 0.5 | ≤ 0.5 |  |  | 
CNc1cc(F)c(F)c2c1[nH]c1nc(Oc3cnc4c(c3)ncn4C3CC3)nc(N3C[C@H]4C[C@@H]3C[C@H]4N)c12 [5.15] | ≤ 0.5 | 1 (≈ 1.93 µM) |  |  | 
CNc1cc(F)c(F)c2c1[nH]c1nc(Oc3cnc(C)nc3)nc(N3CC4CC(N)C4C3)c12 (stereo not drawn) [5.03] |  |  | ≤0.5 | ≤0.5 | 
CNc1cc(F)cc2c1[nH]c1nc(Oc3cnc(C(C)(C)O)nc3)nc(C3CC4(CC[C@H]4N)C3)c12 (stereo partly drawn) [4.431] | ≤ 0.5 | ≤ 0.5 |  |  | 
CNc1cccc2c1[nH]c1nc(Sc3cnc4ccc[n+]([O-])c4c3)nc(N3CC4C(N)C4C3)c12 (stereo not drawn) [1.71] |  |  | ≤0.5 |  | 
CNc1cccc2c1[nH]c1nc(Oc3cnc(C)nc3)nc(N3CC[C@@H](N)C3)c12 [3.5] | 0.25 (≈ 0.64 µM) | ≤ 0.5 |  |  | 
CNc1cc(F)cc2c1[nH]c1nc(Oc3cncnc3)nc(N3CC4CC(N)C4C3)c12 (stereo not drawn) [4.026] | ≤ 0.5 | ≤ 0.5 |  |  | 
CNc1cc(F)cc2c1[nH]c1nc(Oc3cnc(S(C)(=O)=O)nc3)nc(N3CC4C(N)CC4(C)C3)c12 (stereo not drawn) [4.385] |  |  | ≤0.5 | ≤0.5 | 
CNc1cccc2c1[nH]c1nc(Sc3cnc4cccnc4c3)nc(N3C[C@H](N)C[C@H]3C)c12 [1.61] | 8 (≈ 17.5 µM) | 64 (≈ 140 µM) |  |  | 
CNc1cc(F)cc2c1[nH]c1nc(Oc3cnc(C)nc3)nc(N3CC4CCNC4(C)C3)c12 (stereo not drawn) [4.116] |  |  | ≤0.5 | ≤0.5 | 
CNc1cc(F)cc2c1[nH]c1nc(Oc3cncc(C(N)=O)c3)nc(N3CC4CC(N)C4C3)c12 (stereo not drawn) [4.239] |  |  | ≤0.5 | 8 (≈ 17.3 µM) | 
CNc1cccc2c1[nH]c1nc(Oc3ccc[n+]([O-])c3)nc(Oc3cnc(C)nc3)c12 [3.39] | 2 (≈ 4.81 µM) | 64 (≈ 154 µM) |  |  | 
CNc1cc(F)cc2c1[nH]c1nc(Oc3cncc(Br)c3)nc(N3CC4CC(N)C4C3)c12 (stereo not drawn) [4.283] |  |  | ≤0.5 | ≤0.5 | 
CNc1cc(F)cc2c1[nH]c1nc(Oc3cncc(F)c3)nc(N3CC4CC(N)C3C4)c12 (stereo not drawn) [4.063] |  |  | 1 (≈ 2.29 µM) | 8 (≈ 18.3 µM) | 
CNc1cc(F)cc2c1[nH]c1nc(Oc3cnc(C(C)C)nc3)nc(N3CC4CC(N)C4C3)c12 (stereo not drawn) [4.234] |  |  | ≤0.5 | 1 (≈ 2.16 µM) | 
CNc1cccc2c1[nH]c1nc(Sc3cnc4cccnc4c3)nc(N3CC(N)C4(CC4)C3)c12 (stereo not drawn) [1.27] | ≤ 0.5 | 1 (≈ 2.13 µM) |  |  | 

SMILES | MIC (S. aureus ATCC 13709; [1]) [µg/mL] | MIC (E. coli ATCC 25922; [1]) [µg/mL] | MIC Sa (S. aureus ATCC 13709; [2]) [µg/mL] | MIC Ec (E. coli ATCC 25922; [3]) [µg/mL] | further results
CNc1cccc2c1[nH]c1nc(Sc3cnc4ccc[n+]([O-])c4c3)nc(N3CC4C(N)C4C3)c12 (stereo not drawn) [1.13] |  | ≤ 0.5 | ≤0.5 |  | 
CNc1cc(F)cc2c1[nH]c1nc(Oc3cnc(N)nc3)nc(N3CC4CNC4C3)c12 (stereo not drawn) [4.178] | ≤ 0.5 | 8 (≈ 19 µM) |  |  | 
Cc1cc(F)cc2c1[nH]c1nc(Oc3cncnc3)nc(N3CC4C(N)C4C3)c12 (stereo not drawn) [2.7] | 4 (≈ 10.2 µM) | > 16 |  |  | 
CNc1cccc2c1[nH]c1nc(Sc3cnc4cccnc4c3)nc(N3CCN(C(C)=O)CC3)c12 [1.67] | ≤ 0.5 | > 64 |  |  | 
CNc1cc(F)cc2c1[nH]c1nc(Oc3cncnc3)nc(N3C[C@H]4CC[C@@H](CN)[C@H]4C3)c12 [4.021] | ≤ 0.5 | 2 (≈ 4.46 µM) |  |  | 
CNc1cccc2c1[nH]c1nc(Sc3cnc4cccnc4c3)nc(N3CCC(CN)C3)c12 (stereo not drawn) [1.48] | ≤ 0.5 | 2 (≈ 4.38 µM) |  |  | 
CNc1cccc2c1[nH]c1nc(Oc3cncc(C(N)=O)c3)nc(N3CC4C(N)C4C3)c12 (stereo not drawn) [3.19] | 8 (≈ 18.6 µM) | 32 (≈ 74.3 µM) |  |  | 
CNc1cccc2c1[nH]c1nc(Sc3cnc4ccc[n+]([O-])c4c3)nc(N3CC(C4(N)CC4)C3)c12 [1.33] | ≤ 0.5 | 4 (≈ 8.25 µM) |  |  | 
CNc1cc(F)cc2c1[nH]c1nc(Oc3cnc(CC(=O)N4CCC(N)C4)nc3)nc(N3CC(N)C4(CC4)C3)c12 (stereo not drawn) [4.372] |  |  | 4 (≈ 7.32 µM) | 16 (≈ 29.3 µM) | 
CNc1cc(Cl)cc2c1[nH]c1nc(Oc3cnc4cccnc4c3)nc(N3CCCC4(CC4N)C3)c12 (stereo not drawn) [6.14] |  |  |  |  | MIC Sa (S. aureus ATCC 13709): ≤0.5 µg/mL; MIC Ec (E. coli ATCC 25922): 1 µg/mL (≈ 2 µM)
CNc1cc(F)cc2c1[nH]c1nc(Oc3cnc4cccnc4c3)nc(N3C[C@H](N)C4(CC4)C3)c12 [4.038] | ≤ 0.5 | ≤ 0.5 |  |  | 
COc1cccc2c1[nH]c1nc(Sc3cnc4cccnc4c3)nc(N3CC4C(N)C4C3)c12 (stereo not drawn) [1.75] | ≤ 0.5 | > 64 |  |  | 
CNc1cc(F)cc2c1[nH]c1nc(Oc3cncnc3)nc(N3CC4CCC(N)C4C3)c12 (stereo not drawn) [4.016] | ≤ 0.5 | 1 (≈ 2.3 µM) |  |  | 
CNc1cccc2c1[nH]c1nc(Sc3cnc4cccnc4c3)nc(N3C[C@@H](N)C[C@H]3C)c12 [1.60] | 0.5 (≈ 1.1 µM) | 2 (≈ 4.38 µM) |  |  | 
CNc1cccc2c1[nH]c1nc(Sc3cnc4cccnc4c3)nc(N3C[C@H](N)C[C@@H]3CO)c12 [1.68] | 16 (≈ 33.9 µM) | 32 (≈ 67.7 µM) |  |  | 
CNc1cccc2c1[nH]c1nc(Sc3cncnc3)nc(N3CC(N)C4(CC4)C3)c12 (stereo not drawn) [1.44] | 1 (≈ 2.39 µM) | 2 (≈ 4.78 µM) |  |  | 
CNc1cccc2c1[nH]c1nc(Oc3cncnc3)nc(N3CCC4(CC4N)C3)c12 (stereo not drawn) [3.41] | ≤ 0.5 | ≤ 0.5 |  |  | 
CNc1cc(F)cc2c1[nH]c1nc(Oc3cnc(C)nc3)nc(N3CC4CC3CC4N)c12 (stereo not drawn) [4.130] |  |  | ≤0.5 | ≤0.5 | 
CNc1cc(F)cc2c1[nH]c1nc(Oc3cnc(C)nc3)nc(N3CC4CC(N)CC4C3)c12 (stereo not drawn) [4.104] |  |  | ≤0.5 | ≤0.5 | 
CNc1cc(F)cc2c1[nH]c1nc(Oc3cnc(C)nc3)nc(N3CCC(N)C(C)(C)C3)c12 (stereo not drawn) [4.152] | ≤ 0.5 | 1 (≈ 2.22 µM) |  |  | 
CNc1cccc2c1[nH]c1nc(Sc3cnc4ccc[n+]([O-])c4c3)nc(N3CC4C(N)C4C3)c12 (stereo not drawn) [1.23] |  |  | ≤0.5 |  | 
